Assay results from patent US20080207705A1, “Heteroaryl-Imidazole Derivatives as Cannabinoid CB1 Receptor Antagonists” (Green Cross Corporation, priority 2007, published 2008).

target: T1, rat CB-1 receptor (Rattus norvegicus, UniProt P20272); experiment: rat CB-1 receptor binding protocol with [3H]CP-55940; details: not given
T1 construct: The tissue obtained from the brain of SD rats was homogenized; from tissue; host or cells: brain of SD rats (membrane pellet of homogenate)
T1 sequence (P20272 whole entry): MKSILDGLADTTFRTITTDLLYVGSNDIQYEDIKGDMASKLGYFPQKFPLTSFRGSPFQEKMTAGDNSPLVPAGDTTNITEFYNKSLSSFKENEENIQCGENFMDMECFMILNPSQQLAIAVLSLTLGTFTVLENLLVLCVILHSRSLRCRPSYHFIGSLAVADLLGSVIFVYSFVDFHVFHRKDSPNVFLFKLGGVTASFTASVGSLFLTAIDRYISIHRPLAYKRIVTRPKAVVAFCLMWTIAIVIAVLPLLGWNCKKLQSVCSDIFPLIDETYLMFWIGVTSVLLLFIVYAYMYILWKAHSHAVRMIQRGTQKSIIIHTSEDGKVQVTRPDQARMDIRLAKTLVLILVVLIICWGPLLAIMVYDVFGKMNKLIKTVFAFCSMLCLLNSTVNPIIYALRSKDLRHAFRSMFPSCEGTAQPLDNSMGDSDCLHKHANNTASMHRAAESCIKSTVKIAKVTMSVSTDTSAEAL

SMILES	IC50 [nM]
CC(C)(C)c1nnc(-c2nc(-c3ccc(Cl)cc3Cl)n(-c3ccc(Cl)cc3)c2C2CC2)s1 [Example 113, 2-tert-Butyl-5-(1-(4-chlorophenyl)-5-cyclopropyl-2-(2,4-dichlorophenyl)-1H-imidazol-4-yl)-1,3,4-thiadiazole]	58

same assay, conditions: [3H]CP-55940, brain tissue of SD rats, 30 °C for 60 min; read-out: IC50

IC50 [nM]	SMILES
1.53	Clc1ccc(-n2c(-c3ccc(Cl)cc3Cl)nc(-c3nnc(C4(c5ccc(Cl)cc5)CC4)o3)c2Cn2cncn2)cc1 [Example 88, 2-(5-((1H-1,2,4-Triazol-1-yl)methyl)-1-(4-chlorophenyl)-2-(2,4-dichlorophenyl)-1H-imidazol-4-yl)-5-(1-(4-chlorophenyl)cyclopropyl)-1,3,4-oxadiazole]
1.14	FC(F)(F)C1(c2nnc(-c3nc(-c4ccc(Cl)cc4Cl)n(-c4ccc(Cl)cc4)c3Cn3cncn3)o2)CC1 [Example 89, 2-(5-((1H-1,2,4-Triazol-1-yl)methyl)-1-(4-chlorophenyl)-2-(2,4-dichlorophenyl)-1H-imidazol-4-yl)-5-(1-(trifluoromethyl)cyclopropyl)-1,3,4-oxadiazole]
20.2	Cc1c(-c2nnc(C(C)(C)C)s2)nc(-c2ccc(Cl)cc2Cl)n1-c1ccc(Cl)cc1 [Example 90, 2-tert-Butyl-5-(1-(4-chlorophenyl)-2-(2,4-dichlorophenyl)-5-methyl-1H-imidazol-4-yl)-1,3,4-thiadiazole]
46	Cc1c(-c2nnc(C3CCCCC3)s2)nc(-c2ccc(Cl)cc2Cl)n1-c1ccc(Cl)cc1 [Example 91, 2-(1-(4-Chlorophenyl)-2-(2,4-dichlorophenyl)-5-methyl-1H-imidazol-4-yl)-5-cyclohexyl-1,3,4-thiadiazole]
10.8	Cc1c(-c2nnc(C3CCCC3)s2)nc(-c2ccc(Cl)cc2Cl)n1-c1ccc(Cl)cc1 [Example 92, 2-(1-(4-Chlorophenyl)-2-(2,4-dichlorophenyl)-5-methyl-1H-imidazol-4-yl)-5-cyclopentyl-1,3,4-thiadiazole]
42.3	Cc1c(-c2nnc(C3CCC3)s2)nc(-c2ccc(Cl)cc2Cl)n1-c1ccc(Cl)cc1 [Example 93, 2-(1-(4-Chlorophenyl)-2-(2,4-dichlorophenyl)-5-methyl-1H-imidazol-4-yl)-5-cyclobutyl-1,3,4-thiadiazole]
21.6	Cc1c(-c2nnc(C3CCCCCC3)s2)nc(-c2ccc(Cl)cc2Cl)n1-c1ccc(Cl)cc1 [Example 94, 2-(1-(4-Chlorophenyl)-2-(2,4-dichlorophenyl)-5-methyl-1H-imidazol-4-yl)-5-cycloheptyl-1,3,4-thiadiazole]
15	CCCCC(C)c1nnc(-c2nc(-c3ccc(Cl)cc3Cl)n(-c3ccc(Cl)cc3)c2C)s1 (stereo not drawn) [Example 95, 2-(1-(4-Chlorophenyl)-2-(2,4-dichlorophenyl)-5-methyl-1H-imidazol-4-yl)-5-(hexan-2-yl)-1,3,4-thiadiazole]
12.7	CCCC(C)c1nnc(-c2nc(-c3ccc(Cl)cc3Cl)n(-c3ccc(Cl)cc3)c2C)s1 (stereo not drawn) [Example 96, 2-(1-(4-Chlorophenyl)-2-(2,4-dichlorophenyl)-5-methyl-1H-imidazol-4-yl)-5-(pentan-2-yl)-1,3,4-thiadiazole]
28.1	CCC(C)c1nnc(-c2nc(-c3ccc(Cl)cc3Cl)n(-c3ccc(Cl)cc3)c2C)s1 (stereo not drawn) [Example 97, 2-sec-Butyl-5-(1-(4-chlorophenyl)-2-(2,4-dichlorophenyl)-5-methyl-1H-imidazol-4-yl)-1,3,4-thiadiazole]
22.2	Cc1c(-c2nnc(C(C)C)s2)nc(-c2ccc(Cl)cc2Cl)n1-c1ccc(Cl)cc1 [Example 98, 2-(1-(4-Chlorophenyl)-2-(2,4-dichlorophenyl)-5-methyl-1H-imidazol-4-yl)-5-isopropyl-1,3,4-thiadiazole]
19.7	CCC(CC)c1nnc(-c2nc(-c3ccc(Cl)cc3Cl)n(-c3ccc(Cl)cc3)c2C)s1 [Example 99, 2-(1-(4-Chlorophenyl)-2-(2,4-dichlorophenyl)-5-methyl-1H-imidazol-4-yl)-5-(pentan-3-yl)-1,3,4-thiadiazole]
16.9	Cc1c(-c2nnc(C(C)c3ccccc3)s2)nc(-c2ccc(Cl)cc2Cl)n1-c1ccc(Cl)cc1 (stereo not drawn) [Example 100, 2-(1-(4-Chlorophenyl)-2-(2,4-dichlorophenyl)-5-methyl-1H-imidazol-4-yl)-5-(1-phenylethyl)-1,3,4-thiadiazole]
17.6	CCc1c(-c2nnc(C3CCCC3)s2)nc(-c2ccc(Cl)cc2Cl)n1-c1ccc(Cl)cc1 [Example 102, 2-(1-(4-Chlorophenyl)-2-(2,4-dichlorophenyl)-5-ethyl-1H-imidazol-4-yl)-5-cyclopentyl-1,3,4-thiadiazole]
16.1	CCc1c(-c2nnc(C3CCC3)s2)nc(-c2ccc(Cl)cc2Cl)n1-c1ccc(Cl)cc1 [Example 103, 2-(1-(4-Chlorophenyl)-2-(2,4-dichlorophenyl)-5-ethyl-1H-imidazol-4-yl)-5-cyclobutyl-1,3,4-thiadiazole]
15.8	CCc1c(-c2nnc(C(C)(C)C)s2)nc(-c2ccc(Cl)cc2Cl)n1-c1ccc(Cl)cc1 [Example 104, 2-tert-Butyl-5-(1-(4-chlorophenyl)-2-(2,4-dichlorophenyl)-5-ethyl-1H-imidazol-4-yl)-1,3,4-thiadiazole]

IC50 [nM]	SMILES
8.05	CCCCC(C)c1nnc(-c2nc(-c3ccc(Cl)cc3Cl)n(-c3ccc(Cl)cc3)c2CC)s1 (stereo not drawn) [Example 105, 2-(1-(4-Chlorophenyl)-2-(2,4-dichlorophenyl)-5-ethyl-1H-imidazol-4-yl)-5-(hexan-2-yl)-1,3,4-thiadiazole]
12.9	CCCC(C)c1nnc(-c2nc(-c3ccc(Cl)cc3Cl)n(-c3ccc(Cl)cc3)c2CC)s1 (stereo not drawn) [Example 106, 2-(1-(4-Chlorophenyl)-2-(2,4-dichlorophenyl)-5-ethyl-1H-imidazol-4-yl)-5-(pentan-2-yl)-1,3,4-thiadiazole]
8.46	CCc1c(-c2nnc(C(C)CC)s2)nc(-c2ccc(Cl)cc2Cl)n1-c1ccc(Cl)cc1 (stereo not drawn) [Example 107, 2-sec-Butyl-5-(1-(4-chlorophenyl)-2-(2,4-dichlorophenyl)-5-ethyl-1H-imidazol-4-yl)-1,3,4-thiadiazole]
56.6	Cc1c(-c2nnc(C3CCCCC3)s2)nc(-c2ccc(Cl)cc2Cl)n1-c1ccc(Br)cc1 [Example 108, 2-(1-(4-Bromophenyl)-2-(2,4-dichlorophenyl)-5-methyl-1H-imidazol-4-yl)-5-cyclohexyl-1,3,4-thiadiazole]
3.45	Cc1c(-c2nnc(C(C)(C)C)s2)nc(-c2ccc(Cl)cc2Cl)n1-c1ccc(Br)cc1 [Example 109, 2-(1-(4-Bromophenyl)-2-(2,4-dichlorophenyl)-5-methyl-1H-imidazol-4-yl)-5-tert-butyl-1,3,4-thiadiazole]
1.91	CCc1c(-c2nnc(C(C)(C)C)s2)nc(-c2ccc(Cl)cc2Cl)n1-c1ccc(Br)cc1 [Example 110, 2-(1-(4-Bromophenyl)-2-(2,4-dichlorophenyl)-5-ethyl-1H-imidazol-4-yl)-5-tert-butyl-1,3,4-thiadiazole]
27.8	Cc1c(-c2nnc(C3CCC3)s2)nc(-c2ccc(Cl)cc2Cl)n1-c1ccc(Br)cc1 [Example 111, 2-(1-(4-Bromophenyl)-2-(2,4-dichlorophenyl)-5-methyl-1H-imidazol-4-yl)-5-cyclobutyl-1,3,4-thiadiazole]
14	CCc1c(-c2nnc(C3CCC3)s2)nc(-c2ccc(Cl)cc2Cl)n1-c1ccc(Br)cc1 [Example 112, 2-(1-(4-Bromophenyl)-2-(2,4-dichlorophenyl)-5-ethyl-1H-imidazol-4-yl)-5-cyclobutyl-1,3,4-thiadiazole]
6.49	CC(C)c1c(-c2nnc(C(C)(C)C)s2)nc(-c2ccc(Cl)cc2Cl)n1-c1ccc(Br)cc1 [Example 114, 2-(1-(4-Bromophenyl)-2-(2,4-dichlorophenyl)-5-isopropyl-1H-imidazo-4-yl)-5-tert-butyl-1,3,4-thiadiazole]
5.66	CC(C)c1c(-c2nnc(C3(c4ccccc4)CC3)s2)nc(-c2ccc(Cl)cc2Cl)n1-c1ccc(Br)cc1 [Example 116, 2-(1-(4-Bromophenyl)-2-(2,4-dichlorophenyl)-5-isopropyl-1H-imidazol-4-yl)-5-(1-phenylcyclopropyl)-1,3,4-thiadiazole]
8.29	CCc1c(-c2nnc(C3(c4ccccc4)CC3)s2)nc(-c2ccc(Cl)cc2Cl)n1-c1ccc(Br)cc1 [Example 117, 2-(1-(4-Bromophenyl)-2-(2,4-dichlorophenyl)-5-ethyl-1H-imidazol-4-yl)-5-(1-phenylcyclopropyl)-1,3,4-thiadiazole]
7.54	CC(C)c1c(-c2nnc(C3(c4ccccc4)CC3)s2)nc(-c2ccc(Cl)cc2Cl)n1-c1ccc(Cl)cc1 [Example 118, 2-(1-(4-Chlorophenyl)-2-(2,4-dichlorophenyl)-5-isopropyl-1H-imidazol-4-yl)-5-(1-phenylcyclopropyl)-1,3,4-thiadiazole]
13.5	CCCc1c(-c2nnc(C(C)(C)C)s2)nc(-c2ccc(Cl)cc2Cl)n1-c1ccc(Br)cc1 [Example 119, 2-(1-(4-Bromophenyl)-2-(2,4-dichlorophenyl)-5-propyl-1H-imidazol-4-yl)-5-tert-butyl-1,3,4-thiadiazole]
44.3	CCCc1c(-c2nnc(C3CCCCC3)s2)nc(-c2ccc(Cl)cc2Cl)n1-c1ccc(Br)cc1 [Example 120, 2-(1-(4-Bromophenyl)-2-(2,4-dichlorophenyl)-5-propyl-1H-imidazol-4-yl)-5-cyclohexyl-1,3,4-thiadiazole]
13.2	CCCc1c(-c2nnc(C3(c4ccccc4)CC3)s2)nc(-c2ccc(Cl)cc2Cl)n1-c1ccc(Br)cc1 [Example 121, 2-(1-(4-Bromophenyl)-2-(2,4-dichlorophenyl)-5-propyl-1H-imidazol-4-yl)-5-(1-phenylcyclopropyl)-1,3,4-thiadiazole]
37.4	CCCc1c(-c2nnc(C3CCC3)s2)nc(-c2ccc(Cl)cc2Cl)n1-c1ccc(Br)cc1 [Example 122, 2-(1-(4-Bromophenyl)-2-(2,4-dichlorophenyl)-5-propyl-1H-imidazol-4-yl)-5-cyclobutyl-1,3,4-thiadiazole]
